Read-outs that look alike come from different tables or passages of the source.
Tests used:
P-glycoprotein = P-glycoprotein (Homo sapiens (Human), UniProt P08183); test: P-glycoprotein inhibitory activity: MTT cell growth assay in P-gp overexpressing MES-SA/DX5 cells with docetaxel or paclitaxel; assay type: cell-based; details: 3 days, with 100 nM docetaxel or 200 nM paclitaxel, MTT readout
Protocol: P-glycoprotein inhibitory activity may be determined by an assay wherein P-glycoprotein overexpressed cell lines are treated with increasing concentrations of a compound of the present disclosure and therapeutic agent for three days, followed by an MTT assay.
Cell growth percentage may be calculated with the following equation: Cell growth percentage=(T−T0)/(C−T0)×100%, wherein T is OD of the test well exposure to Compound; C is OD of the control well without Compound treatment; and T0 is OD at time zero.
A P-glycoprotein overexpressing cell line derived from the human uterine sarcoma cell line MES-SA (i.e., MES-SA/DX5 cells (ATCC)) was seeded by stepwise exposures to increasing concentrations of doxorubicin, in a 96-well plate at 6,500 cells/100 μL media (McCoy's 5A+10% FBS) in each well. The cells were incubated overnight at 37° C. 5% CO2. Compounds were diluted in a separate 96-well plate to yield 11× of final concentration (final Compound concentrations were 0, 5, 20, 80, 320, and 1280 nM and the final docetaxel concentration was 100 nM or the final paclitaxel concentration was 200 nM). DMSO was used as a negative control and known P-glycoprotein inhibitor, encequidar methane sulfonic acid monohydrate (HM30181A), was used as a positive control. 10 μL of the 11× dilutions was added to the appropriate well, P-glycoprotein inhibition wells comprised Compound+docetaxel (or Compound+paclitaxel). The compound toxicity wells comprised 1280 nM Compound+10 μL of culture media. Treated the cells were incubated for 3 days at 37° C. 5% CO2.
To value (reflecting the starting number of cells upon Compound treatment) of 3 wells of cells was determined by performing the following steps 1-4 as described below.
1. 10 μL MTT (5 mg/mL in PBS) was added to each well and incubated for 1.5 hours at 37° C. 5% CO2.
2. Culture media was removed and 100 μL of DMSO was added to each well.
3. The plate was gently shook until all purple MTT formazan crystals were dissolved. OD540 was then measured using microplate reader.
4. Cell growth percentage was calculated with the following equation: Cell growth percentage=(T−T0)/(C−T0)×100%, wherein T is OD of the test well exposure to Compound; C is OD of the control well without Compound treatment; and T0 is OD at time zero.

CYP3A4 = CYP3A4 (Homo sapiens (Human), UniProt P08684); test: CYP3A4 inhibitory activity: Luciferin-IPA (P450-Glo) assay with human liver microsome
CYP3A4, sequence (P08684 whole entry): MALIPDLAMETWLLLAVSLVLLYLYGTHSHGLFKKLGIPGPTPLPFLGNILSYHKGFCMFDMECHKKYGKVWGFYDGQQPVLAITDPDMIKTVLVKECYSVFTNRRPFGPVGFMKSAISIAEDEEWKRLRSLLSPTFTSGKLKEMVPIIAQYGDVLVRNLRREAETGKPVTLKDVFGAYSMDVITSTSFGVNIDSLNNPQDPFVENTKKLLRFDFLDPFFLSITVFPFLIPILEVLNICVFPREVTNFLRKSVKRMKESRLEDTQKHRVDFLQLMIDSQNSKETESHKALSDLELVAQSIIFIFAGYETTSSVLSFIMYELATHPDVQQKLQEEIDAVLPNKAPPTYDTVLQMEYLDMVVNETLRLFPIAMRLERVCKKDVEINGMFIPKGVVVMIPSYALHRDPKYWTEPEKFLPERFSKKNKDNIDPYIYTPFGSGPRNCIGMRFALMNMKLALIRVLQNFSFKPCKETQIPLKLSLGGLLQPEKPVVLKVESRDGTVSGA
Protocol: Cytochrome P450 activity may be determined by a P450-Glo™ assay (Promega) with human liver microsomes wherein the compounds of the present disclosure are dosed at different concentrations in buffer and incubated. Dose-response curve and IC50 data may be obtained and fit to a nonlinear regression model using GraphPad Prism software (v6.0).
The standard final Compound concentrations were 37, 111, 333, 1000, and 3000 nM. 12.5 μL of the Compound dilutions were transferred to a white 96-well plate. 1450 μL (enough for a whole plate) of 4× assay buffer (400 mM potassium phosphate buffer (10 mL 1M potassium phosphate buffer: 8.02 mL 1M K2HPO4+1.98 mL 1M KH2PO4 (1.4 g K2HPO4+0.27 g KH2PO4 in 10 mL H2O), 32 μM Luciferin-IPA (Promega V9002)) 580 μl of 1 M K3PO4 buffer, 870 μL H2O, 14 μL of 3 mM Luciferin-IPA, and 18 μL of human liver microsome (Sigma M0317-1VL) was made. 12.5 μL of 4× assay buffer was added to each well. For the well of blank control, 12.5 μL of 4× assay buffer without liver microsome was added. The plate was incubated at room temperature for 15 minutes. 2.75 mL NADPH buffer was made as follows: 2.42 mL H2O, 275 μL solution A and 55 μL solution B (NADPH regeneration system, Promega V9510). 25 μL of the buffer was added to each well. The plates were incubated at 37° C. for 11 minutes. 50 μL of luciferin detection reagent (Promega V9002) was added and the plates were incubated at room temperature for 5 minutes. The plate was read with a luminometer.
The dose-response curve and IC50 were obtained by fitting data to nonlinear regression model using GraphPad Prism software (v6.0).

P-glycoprotein, sequence (P08183 whole entry): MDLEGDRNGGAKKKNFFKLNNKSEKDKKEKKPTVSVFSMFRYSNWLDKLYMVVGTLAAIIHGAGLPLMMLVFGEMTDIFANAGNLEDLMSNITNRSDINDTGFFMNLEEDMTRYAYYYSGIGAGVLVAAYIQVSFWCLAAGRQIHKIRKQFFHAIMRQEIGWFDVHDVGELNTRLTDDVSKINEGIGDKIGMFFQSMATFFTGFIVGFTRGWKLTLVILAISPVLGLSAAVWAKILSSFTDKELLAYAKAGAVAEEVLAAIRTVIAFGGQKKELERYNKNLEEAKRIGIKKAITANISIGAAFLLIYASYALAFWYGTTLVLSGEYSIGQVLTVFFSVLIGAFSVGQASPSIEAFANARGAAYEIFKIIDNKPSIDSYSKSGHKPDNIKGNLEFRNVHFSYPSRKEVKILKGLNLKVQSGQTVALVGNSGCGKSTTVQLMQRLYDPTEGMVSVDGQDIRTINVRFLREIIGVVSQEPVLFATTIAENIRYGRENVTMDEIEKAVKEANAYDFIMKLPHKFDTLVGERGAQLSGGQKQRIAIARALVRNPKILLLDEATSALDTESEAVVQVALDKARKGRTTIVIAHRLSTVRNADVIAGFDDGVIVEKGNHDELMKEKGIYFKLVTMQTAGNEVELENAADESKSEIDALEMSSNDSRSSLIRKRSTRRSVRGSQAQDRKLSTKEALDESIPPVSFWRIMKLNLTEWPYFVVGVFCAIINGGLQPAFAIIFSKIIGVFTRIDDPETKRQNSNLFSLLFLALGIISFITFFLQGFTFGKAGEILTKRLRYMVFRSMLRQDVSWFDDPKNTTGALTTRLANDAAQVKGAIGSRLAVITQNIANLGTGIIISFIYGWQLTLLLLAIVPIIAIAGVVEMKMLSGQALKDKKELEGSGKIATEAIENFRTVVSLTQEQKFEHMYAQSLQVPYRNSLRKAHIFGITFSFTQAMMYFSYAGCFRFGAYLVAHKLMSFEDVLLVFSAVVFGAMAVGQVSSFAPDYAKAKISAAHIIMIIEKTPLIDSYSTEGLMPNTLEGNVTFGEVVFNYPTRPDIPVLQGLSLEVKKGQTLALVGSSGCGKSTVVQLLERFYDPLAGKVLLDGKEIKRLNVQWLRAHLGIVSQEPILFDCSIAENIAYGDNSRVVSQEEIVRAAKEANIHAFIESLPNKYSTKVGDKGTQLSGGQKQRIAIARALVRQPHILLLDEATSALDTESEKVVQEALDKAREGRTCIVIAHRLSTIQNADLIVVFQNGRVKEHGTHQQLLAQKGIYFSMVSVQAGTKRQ

| Structure (SMILES) | EC50 (P-glycoprotein) [nM] | IC50 (CYP3A4) [nM] | IC50 (CYP3A4; human, microsomes, 11 min) [nM] |
| --- | --- | --- | --- |
| COc1cc2c(cc1OC)CN(CCc1ccc(-n3nnc(-c4cc(OC)c(OC)cc4NC(=O)c4ccc(-n5ccnc5)cc4)n3)cc1)CC2 [Compound 23, N-(2-(2-(4-(2-(6,7-Dimethoxy-3,4-dihydroisoquinolin-2(1H)-yl)ethyl)phenyl)-2H-tetrazol-5-yl)-4,5-dimethoxyphenyl)-4-(1H-imidazol-1-yl)benzamide] | 250 to 500 | 500 to 1000 | – |
| COc1cc(NC(=O)c2cc(=O)c3ccccc3o2)c(-c2nnn(-c3ccc(CCN4CCc5cnccc5C4)cc3)n2)cc1OC [Compound 7, N-(2-(2-(4-(2-(3,4-Dihydro-2,6-naphthyridin-2(1H)-yl)ethyl)phenyl)-2H-tetrazol-5-yl)-4,5-dimethoxyphenyl)-4-oxo-4H-chromene-2-carboxamide] | 100 to 250 | 500 to 1000 | – |
| COc1cc2c(cc1OC)CN(CCc1ccc(-n3nnc(-c4cc(OC)c(OC)cc4NC(=O)c4cc(=O)c5cc(-c6ccncc6)ccc5o4)n3)cc1)CC2 [Compound 19, N-(2-(2-(4-(2-(6,7-Dimethoxy-3,4-dihydroisoquinolin-2(1H)-yl)ethyl)phenyl)-2H-tetrazol-5-yl)-4,5-dimethoxyphenyl)-4-oxo-6-(pyridin-4-yl)-4H-chromene-2-carboxamide] | > 1000 | – | > 1000 |
| COc1cc(NC(=O)c2cnc3ccccc3c2)c(-c2nnn(-c3ccc(CCN4CCc5cnccc5C4)cc3)n2)cc1OCc1ccccc1 [Compound 17, N-(4-(Benzyloxy)-2-(2-(4-(2-(3,4-dihydro-2,6-naphthyridin-2(1H)-yl)ethyl)phenyl)-2H-tetrazol-5-yl)-5-methoxyphenyl)quinoline-3-carboxamide] | – | – | 500 to 1000 |
| COc1cc(NC(=O)c2cnc3ccccc3c2)c(-c2nnn(-c3ccc(CCN4CCc5cnccc5C4)cc3)n2)cc1OC [Compound 2, N-(2-(2-(4-(2-(3,4-Dihydro-2,6-naphthyridin-2(1H)-yl)ethyl)phenyl)-2H-tetrazol-5-yl)-4,5-dimethoxyphenyl)quinoline-3-carboxamide] | 100 to 250 | 100 to 250 | – |
| COc1cc2c(cc1OC)CN(CCc1ccc(-n3nnc(-c4cc(OCc5cccnc5)ccc4NC(=O)c4cc(=O)c5ccccc5o4)n3)cc1)CC2 [Compound 27, N-(2-(2-(4-(2-(6,7-Dimethoxy-3,4-dihydroisoquinolin-2(1H)-yl)ethyl)phenyl)-2H-tetrazol-5-yl)-4-(pyridin-3-ylmethoxy)phenyl)-4-oxo-4H-chromene-2-carboxamide] | < 100 | – | > 1000 |
| COc1cc2c(cc1OC)CN(CCc1ccc(-n3nnc(-c4cc(OC)c(OC)cc4NC(=O)c4ccc(-c5cccnc5)cc4)n3)cc1)CC2 [Compound 22, N-(2-(2-(4-(2-(6,7-Dimethoxy-3,4-dihydroisoquinolin-2(1H)-yl)ethyl)phenyl)-2H-tetrazol-5-yl)-4,5-dimethoxyphenyl)-4-(pyridin-3-yl)benzamide] | 100 to 250 | – | > 1000 |
| COc1cc(NC(=O)c2cc(=O)c3ccccc3o2)c(-c2nnn(-c3ccc(CCN(Cc4cccc(-n5ccnc5)c4)Cc4ccc5c(cnn5C)c4)cc3)n2)cc1OC [Compound 3, N-(2-(2-(4-(2-((3-(1H-Imidazol-1-yl)benzyl)((1-methyl-1H-indazol-5-yl)methyl)amino)ethyl)phenyl)-2H-tetrazol-5-yl)-4,5-dimethoxyphenyl)-4-oxo-4H-chromene-2-carboxamide] | > 1000 | 500 to 1000 | – |
| COc1cc2c(cc1OC)CN(CCc1ccc(-n3nnc(-c4cc(OCc5ccccc5)c(OC)cc4NC(=O)c4cc(=O)c5ccccc5o4)n3)cc1)CC2 [Compound 29, N-(4-(Benzyloxy)-2-(2-(4-(2-(6,7-dimethoxy-3,4-dihydroisoquinolin-2(1H)-yl)ethyl)phenyl)-2H-tetrazol-5-yl)-5-methoxyphenyl)-4-oxo-4H-chromene-2-carboxamide] | < 100 | – | > 1000 |
| COc1cc2c(cc1OC)CN(CCc1ccc(-n3nnc(-c4cc(OC)c(OC)cc4NC(=O)c4ccc(-c5ccncc5)cc4)n3)cc1)CC2 [Compound 21, N-(2-(2-(4-(2-(6,7-Dimethoxy-3,4-dihydroisoquinolin-2(1H)-yl)ethyl)phenyl)-2H-tetrazol-5-yl)-4,5-dimethoxyphenyl)-4-(pyridin-4-yl)benzamide] | < 100 | – | > 1000 |
| COc1cc2c(cc1OC)CN(CCc1ccc(-n3nnc(-c4cc(OC)c(OC)cc4NC(=O)c4cc(=O)c5cc(-n6ccnc6)ccc5o4)n3)cc1)CC2 [Compound 20, N-(2-(2-(4-(2-(6,7-Dimethoxy-3,4-dihydroisoquinolin-2(1H)-yl)ethyl)phenyl)-2H-tetrazol-5-yl)-4,5-dimethoxyphenyl)-6-(1H-imidazol-1-yl)-4-oxo-4H-chromene-2-carboxamide] | > 1000 | – | > 1000 |
| COc1cc(NC(=O)c2cc(=O)c3ccccc3o2)c(-c2nnn(-c3ccc(CCN4CCn5cncc5C4)cc3)n2)cc1OCc1ccccc1 [Compound 18, N-(4-(Benzyloxy)-2-(2-(4-(2-(5,6-dihydroimidazo[1,5-a]pyrazin-7(8H)-yl)ethyl)phenyl)-2H-tetrazol-5-yl)-5-methoxyphenyl)-4-oxo-4H-chromene-2-carboxamide] | < 100 | – | > 1000 |
| COc1cc(NC(=O)c2cnc3ccccc3c2)c(-c2nnn(-c3ccc(CCN(Cc4cccc(-n5ccnc5)c4)Cc4ccc5c(cnn5C)c4)cc3)n2)cc1OC [Compound 4, N-(2-(2-(4-(2-((3-(1H-Imidazol-1-yl)benzyl)((1-methyl-1H-indazol-5-yl)methyl)amino)ethyl)phenyl)-2H-tetrazol-5-yl)-4,5-dimethoxyphenyl)quinoline-3-carboxamide] | 500 to 1000 | 500 to 1000 | – |
| COc1cc2c(cc1OC)CN(CCc1ccc(-n3nnc(-c4cc(OCc5cccnc5)c(OC)cc4NC(=O)c4cc(=O)c5ccccc5o4)n3)cc1)CC2 [Compound 30, N-(2-(2-(4-(2-(6,7-Dimethoxy-3,4-dihydroisoquinolin-2(1H)-yl)ethyl)phenyl)-2H-tetrazol-5-yl)-5-methoxy-4-(pyridin-3-ylmethoxy)phenyl)-4-oxo-4H-chromene-2-carboxamide] | < 100 | – | > 1000 |
| COc1cc(NC(=O)c2cnc3ccccc3n2)c(-c2nnn(-c3ccc(CCN4CCc5cnccc5C4)cc3)n2)cc1OC [Compound 9, N-(2-(2-(4-(2-(3,4-Dihydro-2,6-naphthyridin-2(1H)-yl)ethyl)phenyl)-2H-tetrazol-5-yl)-4,5-dimethoxyphenyl)quinoxaline-2-carboxamide] | > 1000 | 500 to 1000 | – |
| COc1cc(NC(=O)c2cc(=O)c3ccccc3o2)c(-c2nnn(-c3ccc(CCN4CCc5cc(OC)c(OCCn6ccnc6)cc5C4)cc3)n2)cc1OC [Compound 14, N-(2-(2-(4-(2-(7-(2-(1H-Imidazol-1-yl)ethoxy)-6-methoxy-3,4-dihydroisoquinolin-2(1H)-yl)ethyl)phenyl)-2H-tetrazol-5-yl)-4,5-dimethoxyphenyl)-4-oxo-4H-chromene-2-carboxamide] | > 1000 | – | – |
| COc1cc(NC(=O)c2cnc3ccccc3c2)c(-c2nnn(-c3ccc(CCN4CCc5cnccc5C4)cc3)n2)cc1OCc1ccccc1 [Compound 13, N-(4-(Benzyloxy)-2-(2-(4-(2-(3,4-dihydro-2,6-naphthyridin-2(1H)-yl)ethyl)phenyl)-2H-tetrazol-5-yl)-5-methoxyphenyl)quinoline-3-carboxamide] | < 100 | 500 to 1000 | – |
| COc1cc2c(cc1OC)CN(CCc1ccc(NC(=O)c3cc(OC)c(OC)cc3NC(=O)c3cnc4ccccc4c3)cc1)CC2 [Tariquidar, reference compound] | < 100 | – | – |
